This is an account of results in patent US20260041093A1, “Ionic Derivatives Of Aromatic Carboxylic Acid For Use As Plant Stimulants, Method For Stimulating Plants And Use Of These Derivatives For Manufacturing Compositions For Stimulating Plants” (FUNDACJA UNIWERSYTETU IM. ADAMA MICKIEWICZA W POZNANIU, priority 2022, published 2026).

Read-outs that look alike come from different tables or passages of the source.

In experiment [1] the test system is tobacco mosaic virus (TMV). Description: Direct effect on TMV infectivity: virus incubated with substance, then Xanthi tobacco leaves infected (Example 21). Format: in vivo. Particulars: TMV about 3 μg/ml mixed 1:1 with substance 80 mg/L, 30 min; 5 days after infection; control 100. How it is done: Sodium 3-chlorosalicylate; 5. Potassium 3-chlorosalicylate; 6. Calcium 3-chlorosalicylate; 7. Magnesium 3-chlorosalicylate (concentration 80 mg/L), in a 1:1 ratio and incubated for 30 min at room temperature. The control variant consisted of TMV incubated in water. All virus suspensions were used to mechanically infect Xanthi tobacco leaves, whose reaction to infection is manifested in easily quantifiable local necrotic spots (hypersensitivity, local infection).
After 5 days, the area of leaf covered by necrotic spots compared to total leaf area was calculated for plants of all variants of treatment.

The test system of experiment [2] is Pseudomonas syringae pv. Tomato. Description: Direct effect on bacterial infectivity (Example 22). Format: in vivo. The settings on record: tobacco plant, 5 days after infection with solution of bacteria and test substance; control 100. On the procedure: Proceeding as in example 21, Pseudomonas syringae pv. Tomato bacteria were tested and incubated in bacterial medium.

Experiment [3] concerns powdery mildew fungus. Description: Direct effect on fungal infectivity (Example 23). Format: in vivo. Particulars: tobacco plant, 5 days after infection with solution of fungus and test substance; control 100. On the procedure: Proceeding as in Example 21, the test was performed on the powdery mildew fungus, which was then incubated on the medium.
Experiment [4] deals with Tobacco Mosaic Virus (TMV). Description: Protection of tobacco against TMV infection by watering twice (Example 24). Format: in vivo, Nicotiana tabacum cv. Xanthi. The settings on record: watered twice, 7 days after infection. On the procedure: Tobacco plants (Nicotiana tabacum) cv. […] 3,5-dichlorosalicylate of choline; 4. 3-chlorosalicylate of sodium, 5. 3-chlorosalicylate of potassium, 6. 3-chlorosalicylate of calcium, 7. 3-chlorosalicylate of magnesium at a concentration of 10 or 40 or 80 mg/L, at one-week intervals. The control was tobacco plants watered only with water. One week after the second treatment of the plants with the preparation, mechanical infection of the leaves with Tobacco Mosaic Virus (TMV) was carried out. This consisted of rubbing carborundum-sprinkled leaves several times with fingers soaked in a suspension of purified virus at a concentration of about 2 μg/ml. In order to evaluate the effectiveness of the tested substances in protection against biotic stresses, the TMV model and tobacco cv. Xanthi characterized by an interaction in the form of hypersensitivity phenomenon, i.e. the formation of easily quantifiable necrotic spots, were used.

Experiment [5] deals with Tobacco Mosaic Virus (TMV). Description: Protection of tobacco against TMV infection by spraying twice (Example 25). Format: in vivo, Nicotiana tabacum cv. Xanthi. Particulars: sprayed twice, 7 days after infection. From the text:
5-chlorosalicylate of choline; 3. 3,5-dichlorosalicylate of choline; 4. 3-chlorosalicylate of sodium, 5. 3-chlorosalicylate of potassium, 6. 3-chlorosalicylate of calcium, 7.

Experiment [6] has as its system Pseudomonas syringae pv. Tomato (Pst). Description: Protection of tomato against Pseudomonas syringae pv. Tomato by watering (Example 32). The settings on record: 80 mg/L; watered twice; Pst 10^5; 2 weeks after infection. Format: in vivo. How it is done: (§1) Tomato plants, at the stage of the first pair of developed true leaves, were watered twice with a solution of substance 1-6 at a concentration of 80 mg/L, at a weekly interval. The control was tomato plants watered only with water. One week after the second treatment, a suspension of Pst bacteria at a concentration of 10^5 was spot-injected into the leaves using an insulin syringe (without a needle). The suspension was prepared from a two-day culture of Pst on solid medium. Protection against biotic stress was evaluated by the proliferation of bacteria in the leaves at the insertion site and the formation of a necrotic spot, compared to the control.

For experiment [7] the test system is unchanged. Description: Protection of tomato against Pseudomonas syringae pv. Tomato by spraying (Example 33). Particulars: 80 mg/L, sprayed twice; 2 weeks after infection. The class given is in vivo, Lycopersicon Esculentum Mill tomato. How it is done: as §1
The procedure was followed as in Example 32, with the plants sprayed.

In experiment [8] the test system is powdery mildew fungus. Format: in vivo, tomato. Particulars: 80 mg/L, watered twice; 2 weeks after infection. On the procedure:
Tomato plants, at the stage of the first pair of developed true leaves, were watered twice with a solution of substance 1-32 at a concentration of 80 mg/L, at a weekly interval. The control was tomato plants watered only with water. […] The suspension was prepared from culture on solid medium. Protection against biotic stress was evaluated by comparing the area of leaves affected by infection.

Experiment [9] deals with powdery mildew fungus. Description: Protection of tomato against powdery mildew by spraying (Example 35). The class given is in vivo, Lycopersicon Esculentum Mill tomato. The settings on record: 40 mg/l, sprayed twice; 2 weeks after pathogen inoculation. On the procedure: […] The control was tomato plants watered only with water. […] The suspension was prepared from culture on solid medium. Protection against biotic stress was evaluated by comparing the area of leaves affected by infection.
Proceeded in the way as described in Example 34, with the difference that plants were sprayed and not watered.

The next experiment concerns Brome Mosaic Virus (BMV). Description: Protection of barley against Brome Mosaic Virus infection by watering (Examples 28 and 29). The class given is in vivo. Particulars: 80 mg/L, watered twice; 2 weeks after infection.
Experiment [10] deals with Pseudomonas syringae pv. Tomato (Pst). Particulars: watered twice, Pst 10^5, 2 weeks after infection. On the procedure:
Tobacco plants at the stage of 3 developed leaves were watered twice, at a weekly interval, with a solution of test substances 1-11 at concentrations of 10, 40, 80 mg/L. The control was tobacco plants watered with water only. One week after the second treatment, a suspension of Pst bacteria at a concentration of 10^5 was spotted into the leaves using an insulin syringe (without a needle). The suspension was prepared from a two-day culture of Pst on solid medium. Protection against biotic stress was evaluated by the proliferation of bacteria in the leaves at the insertion site and the formation of a necrotic spot, compared to the control.
We proceeded as in Example 30, with the effectiveness of protection against biotic stress tested against bacterial cell concentrations raised to about 10^6.

Regarding calcium 3-chlorosalicylate, the entries for the “% of necrotic spots” value (in experiment [1]; in experiment [2]; in the experiment on powdery mildew fungus [3]) were 100%, 97% and 97%, respectively. Also, the “% reduction in necrotic spots compared to control” value (shortened to “% reduction in necrotic spots”) in [4] (10 mg/L) came out at 33%; in experiment [4] (40 mg/L), 65%; in experiment [4] (80 mg/L), 97%; in experiment [5] (10 mg/L) it was 20%; in experiment [5] (40 mg/L), 30%; in experiment [5] (80 mg/L), 36%. The figures for the “% reduction in necrotic spots” value (in experiment [6]; in experiment [7]; with powdery mildew fungus [8]) were 86%, 82% and 69%, respectively. Further, the “Reduction in necrotic spots (white patches) compared to control” value in the experiment with powdery mildew fungus [9] worked out at 62%.

As for `C[N+](C)(C)CCO.O=C([O-])c1cc(Cl)ccc1O` [choline 5-chlorosalicylate], the “% of necrotic spots” value turned out to be 100% in experiment [1], 98% in [2] and 98% in the experiment on powdery mildew fungus [3]. Besides, the “% reduction in necrotic spots” value came to 34% in experiment [4] (10 mg/L); 62% in experiment [4] (40 mg/L); 98% in [4] (80 mg/L); 39% in experiment [5] (10 mg/L); 61% in [5] (40 mg/L); 74% in experiment [5] (80 mg/L). The “% reduction in necrotic spots” value was 36% in the experiment on Brome Mosaic Virus (BMV); 28% in experiment [10] (10 mg/L); 36% in [10] (40 mg/L); 80% in [10] (80 mg/L); 87% in [6]; 88% in experiment [7]. Also, the “% reduction in necrotic spots” value in the experiment with powdery mildew fungus [8] stood at 90%. Further, the “Reduction in necrotic spots (white patches) compared to control” value in the experiment with powdery mildew fungus [9] was found to be 68%.

For `O=C([O-])c1cccc(Cl)c1O.[K+]` [potassium 3-chlorosalicylate], the entries for the “% of necrotic spots” value (in [1]; in experiment [2]; in the experiment with powdery mildew fungus [3]) were 95%, 98% and 98%, respectively. Further, the “% reduction in necrotic spots” value in experiment [4] (10 mg/L) was 32%; in [4] (40 mg/L) it was 65%; in experiment [4] (80 mg/L), 98%; in experiment [5] (10 mg/L), over 10%; in [5] (40 mg/L), over 10%; in experiment [5] (80 mg/L), 15%. Also, the “% reduction in necrotic spots” value in experiment [6] is 87%; in experiment [7], 84%; with powdery mildew fungus [8] it was 84%. The “Reduction in necrotic spots (white patches) compared to control” value in the experiment on powdery mildew fungus [9] is recorded as 54%.

In the case of `O=C([O-])c1cccc(Cl)c1O.[Na+]` [sodium 3-chlorosalicylate], the entries for the “% of necrotic spots” value (in [1]; in experiment [2]; in the experiment on powdery mildew fungus [3]) were 97%, 95% and 96%, respectively. For the same compound, the “% reduction in necrotic spots” value in [4] (10 mg/L) is on record as 24%; in experiment [4] (40 mg/L), 63%; in experiment [4] (80 mg/L), 95%; in [5] (10 mg/L), 24%; in experiment [5] (40 mg/L) it was 29%; in [5] (80 mg/L) it was 55%. Further, the “% reduction in necrotic spots” value in experiment [6] is given as 53%; in experiment [7] it was 51%; in the experiment on powdery mildew fungus [8], 88%. The “Reduction in necrotic spots (white patches) compared to control” value in the experiment with powdery mildew fungus [9] is 55%.

For the compound `C[N+](C)(C)CCO.O=C([O-])c1cc(Cl)cc(Cl)c1O`, the “% of necrotic spots” value in experiment [1] was found to be 95%; in [2], 100%; in the experiment on powdery mildew fungus [3], 96%. Further, the “% reduction in necrotic spots” value in experiment [4] (10 mg/L) was 36%; in [4] (40 mg/L) it was 58%; in [4] (80 mg/L), 96%; in experiment [5] (10 mg/L), 36%; in experiment [5] (40 mg/L), 47%; in experiment [5] (80 mg/L), 54%. Also, the “% reduction in necrotic spots” value in the experiment on Brome Mosaic Virus (BMV) is 77%; in experiment [10] (10 mg/L) it was 27%; in experiment [10] (40 mg/L) it was 38%; in experiment [10] (80 mg/L), 84%; in experiment [6], 59%; in experiment [7] it was 57%. The “% reduction in necrotic spots” value with powdery mildew fungus [8] stood at 85%. For the same compound, the “Reduction in necrotic spots (white patches) compared to control” value with powdery mildew fungus [9] is 66%.
